{
  "source": "patent US9901573B2",
  "about": "“Compositions, methods, and kits for regulating energy metabolism” (NuSirt Sciences, Inc., priority 2012, dated 2018)",
  "key": {"3T3-L1 adipocytes": {"system": "3T3-L1 adipocytes", "assay": "Intracellular Ca2+ by fura-2 imaging in adipocytes", "type": "cell-based", "procedure": "Cell culture: 3T3-L1 pre-adipocytes were incubated at a density of 8000 cells/cm^2 (10 cm^2 dish) and grown in the absence of insulin in Dulbecco's modified Eagle's medium (DMEM) containing 10% FBS and antibiotics (1% penicillin-streptomycin)(adipocyte medium) at 37° C. in 5% CO2 in air. Confluent pre-adipocytes were induced to differentiate with a standard differentiation medium consisting of DMEM-F10 (1:1, vol/vol) medium supplemented with 1% fetal bovine serum (FBS), 250 nM dexamethasone (DEXA), isobutylmethylxanthine (IBMX) (0.5 mM) and antibiotics. Pre-adipocytes were maintained in this differentiation medium for 3 days (unless specifically indicated) and subsequently cultured in adipocyte medium. Cultures were re-fed every 2-3 days to allow 90% cells to reach fully differentiation before treatment.\nIntracellular Ca^2+ ([Ca^2+]i): [Ca^2+]i was measured using a fura-2 dual wavelength fluorescence imaging system. Adipocytes were plated and differentiated in 35 mm dishes with glass coverslips (P35G-0-14-C, MatTek Corporation). Prior to [Ca^2+]i measurement, cells were preincubated in serum-free medium overnight and rinsed with Hepes Balanced Salt Solution (HBSS) containing the following components (in mM): NaCl 138, CaCl2 1.8, MgSO4 0.8, NaH2PO4 0.9, NaHCO3 4, glucose 5, glutamine 6, Hepes 20, and bovine serum albumin 1%. Cells were loaded with fura-2 acetoxymethyl ester (AM) (10 μM) in the same buffer for 2 hr at 37° C. in a dark incubator with 5% CO2. To remove extracellular dye, cells were rinsed with HBSS 3 times and then postincubated at room temperature for an additional 1 hr for complete hydrolysis of cytoplasmic fura-2 AM. The dishes with dye-loaded cells were mounted on the stage of Nikon TMS-F fluorescence inverted microscope with a Cohu 4915 CCD camera. Fluorescent images were captured alternatively at excitation wavelength of […] with an emission wavelength of 520 nm. [Ca^2]i was calculated using a standard ratio equation. Each analysis evaluated responses of 8-10 representative whole cells. Images were analyzed with InCytIm2 version 4.62 imaging software (Intracellular Imaging, Cincinnati, Ohio). Images were calibrated using a fura-2 calcium imaging calibration kit (Molecular Probes, Eugene, Oreg.) to create a calibration curve in solution, and cellular calibration was accomplished using digitonin (25 μM) and pH 8.7 Tris-EGTA (100 mM) to measure maximal and minimal [Ca^2+]i levels."}, "C2C12 myotubes": {"system": "C2C12 myotubes", "assay": "Mitochondrial biogenesis (mitochondrial mass, NAO probe)", "type": "cell-based", "settings": "FIG. 13", "procedure": "Cell Culture: C2C12 and 3T3-L1 preadipocytes (American Type Culture Collection) were plated at a density of 8000 cells/cm^2 (10 cm^2 dish) and grown in Dulbecco's modified eagle's medium (DMEM) containing 10% fetal bovine serum (FBS), and antibiotics (growth medium) at 37° C. in 5% CO2. Confluent 3T3-L1 preadipocytes were induced to differentiate with a standard differentiation medium consisting of DMEM medium supplemented with 10% FBS, 250 nM dexamethasone, 0.5 mM 3-Isobutyl-1-methylxanthine (IBMX) and 1% penicillin-streptomycin. Preadipocytes were maintained in this differentiation medium for 3 days and subsequently cultured in growth medium. Cultures were re-fed every 2-3 days to allow >90% cells to reach fully differentiation before conducting chemical treatment. For differentiation of C2C12 cells, cells were grown to 100% confluence, transferred to differentiation medium (DMEM with 2% horse serum and 1% penicillin-streptomycin), and fed with fresh differentiation medium every day until myotubes were fully formed (3 days). Mitochondrial biogenesis: Mitochondrial biogenesis was assessed as change in mitochondrial mass, as previously described (2). The mitochondrial probe NAO (Invitrogen, Carlsbad, Calif.) was used to analyze mitochondrial mass by fluorescence (excitation 485 nm and emission 520 nm) and quantitative data was obtained with a fluorescence microplate reader (Synergy HT, BioTek Instruments, Winooski, Vt.). The intensity of fluorescence was expressed as arbitrary units per μg protein and normalized to control values within each assay."}, "[1]": {"assay": "Circulating level achieved by dietary dosing", "type": "in vivo, human", "excerpt": "In some embodiments, the dosing of leucine, any metabolites of leucine, and/or vitamin B6 can be designed to achieve a specified physiological concentration or circulating level of leucine, metabolites of leucine and/or vitamin B6. The physiological concentration can be a circulating level as measured in the blood stream of a subject. The subject can be a human or an animal. A selected dosing can be altered based on the characteristics of the subject, such as weight, rate of energy metabolism, genetics, ethnicity, height, or any other characteristic. The amount of leucine in a unit dose can be such that the circulating level of leucine in a subject is about or greater than about 0.25 mM, 0.5 mM, 0.75 mM, or 1 mM. A dosing of about 1,125 mg leucine can achieve a circulating level of leucine in a subject that is about 0.5 mM. A dosing of about 300 mg leucine can achieve a circulating level of leucine in a subject that is about 0.25 mM. A dosing of about 15 mg of vitamin B6 can achieve a circulating level of vitamin B6 that is about 100 nM. A dosing of about 7.5 mg of vitamin B6 can achieve a circulating level of vitamin B6 that is about 50 nM. The amount of vitamin B6 in a unit dose can be such that the circulating level of vitamin B6 in a subject is about or greater than about 10, 25, 50, 100, 150, or 200 nM. […]"}},
  "note": "Marks after values point to notes of the source that are not given here.",
  "data": [
    {"compound": "CC(C)C[C@H](N)C(=O)O", "note": "[Leucine, leucine]", "values": [
      {"measurement": "Intracellular Ca2+", "setting": "3T3-L1 adipocytes; Leucine 0.25 mM", "value": "75.2^b ± nM"},
      {"measurement": "Intracellular Ca2+", "setting": "3T3-L1 adipocytes; Leucine 0.5 mM", "value": "83.7^b ± nM"},
      {"measurement": "increase in mitochondrial biogenesis (mitochondrial biomass)", "setting": "C2C12 myotubes", "value": "about 15%"},
      {"measurement": "circulating level of leucine", "setting": "[1]; dosing of about 300 mg leucine", "value": "about 0.25 mM"},
      {"measurement": "circulating level of leucine", "setting": "[1]; dosing of about 1,125 mg leucine", "value": "about 0.5 mM"}
    ]}
  ]
}
